Experimental findings from patent publication US12583824B2 (Genzyme Corporation, priority 2019, dated 2026) are described below.

The target of this assay is T1, CFTR in primary human bronchial epithelial cells from a ΔF508 homozygous CF donor (CF-HBE cells) (Homo sapiens, UniProt P13569, DEL508-508).
T1 construct: Primary human bronchial epithelial cells from a ΔF508 homozygous CF donor; host or cells: primary human bronchial epithelial cells (CF-HBE), ΔF508 homozygous donor
T1 sequence (P13569 with tags, fused parts or gaps DEL508-508): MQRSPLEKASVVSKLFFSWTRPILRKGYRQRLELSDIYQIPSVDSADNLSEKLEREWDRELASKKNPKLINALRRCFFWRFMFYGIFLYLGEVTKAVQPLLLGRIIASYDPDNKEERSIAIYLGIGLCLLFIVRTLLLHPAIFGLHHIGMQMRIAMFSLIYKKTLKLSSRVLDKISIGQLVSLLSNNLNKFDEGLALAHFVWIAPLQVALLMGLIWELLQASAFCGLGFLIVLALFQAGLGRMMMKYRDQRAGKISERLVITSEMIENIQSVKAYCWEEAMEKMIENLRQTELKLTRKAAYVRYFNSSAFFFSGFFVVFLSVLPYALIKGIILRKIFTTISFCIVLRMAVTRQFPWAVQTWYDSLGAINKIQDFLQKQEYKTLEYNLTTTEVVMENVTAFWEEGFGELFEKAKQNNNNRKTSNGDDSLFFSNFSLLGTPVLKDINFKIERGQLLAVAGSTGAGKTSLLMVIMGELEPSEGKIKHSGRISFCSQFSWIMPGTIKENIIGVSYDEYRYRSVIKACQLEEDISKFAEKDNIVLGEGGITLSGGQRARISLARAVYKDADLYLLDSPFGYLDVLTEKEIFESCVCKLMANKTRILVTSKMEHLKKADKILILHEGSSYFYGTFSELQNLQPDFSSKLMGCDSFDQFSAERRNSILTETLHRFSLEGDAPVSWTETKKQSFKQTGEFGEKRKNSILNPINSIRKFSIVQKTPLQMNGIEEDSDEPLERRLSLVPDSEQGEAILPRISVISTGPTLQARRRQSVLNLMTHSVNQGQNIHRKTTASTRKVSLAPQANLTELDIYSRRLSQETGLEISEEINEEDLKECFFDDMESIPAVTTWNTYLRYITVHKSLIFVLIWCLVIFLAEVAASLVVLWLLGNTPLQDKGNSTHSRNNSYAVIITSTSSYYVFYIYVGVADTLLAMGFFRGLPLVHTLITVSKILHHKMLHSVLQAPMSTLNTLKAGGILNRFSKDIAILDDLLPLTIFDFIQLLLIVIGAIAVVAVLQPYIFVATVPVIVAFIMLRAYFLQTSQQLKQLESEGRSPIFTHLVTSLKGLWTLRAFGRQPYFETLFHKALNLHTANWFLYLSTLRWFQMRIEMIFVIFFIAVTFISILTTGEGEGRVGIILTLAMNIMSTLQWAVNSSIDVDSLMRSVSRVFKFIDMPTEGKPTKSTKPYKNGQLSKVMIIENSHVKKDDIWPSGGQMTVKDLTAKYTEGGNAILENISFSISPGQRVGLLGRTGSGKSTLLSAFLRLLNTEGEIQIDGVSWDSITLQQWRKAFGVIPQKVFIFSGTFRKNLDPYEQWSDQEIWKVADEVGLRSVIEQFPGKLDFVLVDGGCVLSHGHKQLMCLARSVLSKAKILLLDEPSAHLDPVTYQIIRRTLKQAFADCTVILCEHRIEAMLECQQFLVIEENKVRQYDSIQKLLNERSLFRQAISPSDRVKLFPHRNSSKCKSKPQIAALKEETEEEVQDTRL
The assay can be described thus: TECC24 recording analysis of CFTR-mediated transepithelial chloride transport (AUC fold over DMSO). As to conditions: 3 μM test agent, CF-HBE cells cultured 48 hours at 36.5° C.; ratio of test agent AUC of forskolin-stimulated IEQ divided by vehicle (DMSO) AUC. The format is cell-based. As to the method:
Example 31: TECC24 AUC Fold Over DMSO @ 3 μM
The effects of a test agent on CFTR-mediated transepithelial chloride transport was measured using TECC24 recording analysis. Test agents were solubilized in DMSO. Solubilized test agents were mixed with incubation medium containing DMEM/F12, Ultroser G (2%; Crescent Chemical, catalog #67042), Hyclone Fetal Clone II (2%; GE Healthcare, catalog #SH30066.02), bovine brain extract (0.25%; Lonza, catalog #CC-4098), insulin (2.5 μg/mL), IL-13 (10 ng/mL), hydrocortisone (20 nM), transferrin (2.5 μg/mL), triiodothyronine (500 nM), ethanolamine (250 nM), epinephrine (1.5 μM), phosphoethanolamine (250 nM), and retinoic acid (10 nM). Primary human bronchial epithelial cells from a ΔF508 homozygous CF donor (CF-HBE cells; from University of North Carolina Cystic Fibrosis Tissue Procurement Center), grown on Transwell HTS 24-well cell culture inserts (Costar, catalog #3378), were exposed to test agents or controls dissolved in incubation medium. The CF-HBE cells were cultured at 36.5° C. for 48 hours before TECC24 recordings were performed in the presence or absence of test agent, a positive control or vehicle (DMSO).
Following incubation, the transwell cell culture inserts containing the test agent or control-treated CF-HBE cells were loaded onto a TECC24 apparatus (TECC v7 or MTECC v2; EP Design) to record the transepithelial voltage (VT) and resistance (TEER) using 4 AgCl electrodes per well configured in current-clamp mode. The apical and basolateral bath solutions both contained (in mM) 140 NaCl, 5 KCl, 2 CaCl2), 1 MgCl2, 10 Hepes, and 10 glucose (adjusted to pH 7.4 with NaOH). To inhibit basal Na+ absorption, the ENaC inhibitor benzamil (10 μM) was added to the bath. Then, the adenylate cyclase activator, forskolin (10 μM), was added to the bath to activate CFTR. The forskolin-stimulated Cl-transport was halted by addition of bumetanide (20 μM), an inhibitor of the basolateral chloride co-transporter NKCC1, to the bath to confirm that the detected signal was chloride dependent. VT and TEER recordings were digitally acquired at routine intervals using TECC or MTECC software (EP Design). VT and TEER were transformed into equivalent transepithelial Cl-current (IEQ), and the Area Under the Curve (AUC) of the IEQ time course between forskolin and bumetanide addition is generated using Excel (Microsoft). Efficacy is expressed as the ratio of the test agent AUC divided by vehicle AUC. EC50s based on AUC are generated using the non-linear regression log(agonist) vs. response function in Prism software (GraphPad) with Hill Slope fixed=1.
If a test agent increased the AUC of the forskolin-stimulated IEQ relative to vehicle in CF-HBE cells, and this increase was inhibited by bumetanide, then the test agent was considered a CFTR corrector.
For the compound `Cc1cccc(C)c1-c1nc(NS(=O)(=O)c2ccccc2)ccc1-c1cccc(OCCC(C)(C)C)c1` [Example 15, N-(5-(3-(3,3-dimethylbutoxy)phenyl)-6-(2,6-dimethylphenyl)pyridin-2-yl)benzenesulfonamide], the “TECC24 AUC vs. DMSO (@3 μM)” value was “A (“A “refers to AUC > 5)”. Under `CC(C)c1ccccc1-c1nc(NS(=O)(=O)c2cccc(N)c2)ccc1-c1cccc(OCCC(C)(C)C)c1` [Example 16, 3-amino-N-(5-(3-(3,3-dimethylbutoxy)phenyl)-6-(2-isopropylphenyl)pyridin-2-yl)benzenesulfonamide] stands “A (“A “refers to AUC > 5)”; under `CC(C)(C)COc1cc(-c2ccc(NS(=O)(=O)c3cccc(N)c3)nc2-c2ccc(C(F)(F)F)cc2)ccc1Cl` [Example 17, 3-amino-N-(5-(4-chloro-3-(neopentyloxy)phenyl)-6-(4-(trifluoromethyl)phenyl)pyridin-2-yl)benzenesulfonamide], “C (“C” refers to AUC < 2)”. `CC(C)c1cc(Cl)ccc1-c1nc(NS(=O)(=O)c2ccccc2)ccc1-c1cccc(OC(F)(F)F)c1` [Example 19, N-(6-(4-chloro-2-isopropylphenyl)-5-(3-(trifluoromethoxy)phenyl)pyridin-2-yl)benzenesulfonamide]: the “TECC24 AUC vs. DMSO (@3 μM)” value was “A (“A “refers to AUC > 5)”. The same measure for `Cc1cccc(C)c1-c1nc(NS(=O)(=O)c2cccc(NC3CC(C)(O)C3)c2)ccc1-c1cccc(OCC(C)(C)C(F)(F)F)c1` (centres unmarked) [Example 20]: “A (“A “refers to AUC > 5)”; for `CCc1ccccc1-c1nc(NS(=O)(=O)c2cccc(N3CCCC(C)(C(=O)O)C3)n2)ccc1-c1cccc(OCC(F)(F)F)c1` (centres unmarked) [Example 21, 1-[6-[[6-(2-ethylphenyl)-5-[3-(2,2,2-trifluoroethoxy)phenyl]-2-pyridyl]sulfamoyl]-2-pyridyl]-3-methyl-piperidine-3-carboxylic acid]: “A (“A “refers to AUC > 5)”; for `CC(C)(C)COc1cc(-c2cnc(NS(=O)(=O)c3ccccc3)nc2-c2ccc(C(F)(F)F)cc2)ccc1Cl` [Example 22, 5-(4-chloro-3-(neopentyloxy)phenyl)-2-((phenylsulfonyl)-12-azaneyl)-4-(4-(trifluoromethyl)phenyl)pyrimidine]: “C (“C” refers to AUC < 2)”. The same measure for `CC(C)(C)COc1cc(-c2cnc(NS(=O)(=O)c3cccc(N)c3)nc2-c2ccc(C(F)(F)F)cc2)ccc1Cl` [Example 23]: “B (“B” refers to AUC between 2-5)”. For `CC(C)(C)COc1cc(-c2cnc(NS(=O)(=O)c3cccc(NS(C)(=O)=O)c3)nc2-c2ccc(C(F)(F)F)cc2)ccc1Cl` [Example 24, N-(5-(4-chloro-3-(neopentyloxy)phenyl)-4-(4-(trifluoromethyl)phenyl)pyrimidin-2-yl)-3-(methylsulfonamido)benzenesulfonamide], the “TECC24 AUC vs. DMSO (@3 μM)” value is recorded as “C (“C” refers to AUC < 2)”. Regarding `CC(C)(C)COc1cc(-c2cnc(NS(=O)(=O)c3cccnc3)nc2-c2ccc(C(F)(F)F)cc2)ccc1Cl` [Example 25, N-(5-(4-chloro-3-(neopentyloxy)phenyl)-4-(4-(trifluoromethyl)phenyl)pyrimidin-2-yl)pyridine-3-sulfonamide], the “TECC24 AUC vs. DMSO (@3 μM)” value was “C (“C” refers to AUC < 2)”.

In the case of `CC(C)(C)COc1cc(-c2cnc(NS(=O)(=O)c3cccc(Cl)n3)nc2-c2ccc(C(F)(F)F)cc2)ccc1Cl` [Example 26, 5-(4-chloro-3-(neopentyloxy)phenyl)-2-(((6-chloropyridin-2-yl)sulfonyl)-12-azaneyl)-4-(4-(trifluoromethyl)phenyl)pyrimidine], the “TECC24 AUC vs. DMSO (@3 μM)” value was “C (“C” refers to AUC < 2)”.
